# Experimental data reported in ChEMBL document CHEMBL1201862, “PubChem BioAssay data set” (2004).
# Activity calls are given as the source filed them. For most assays here, no stated cut-off is given here; in the data, actives have a measured EC50 and inactives only a lower limit.
# How the values were obtained:
# [1] = target: Cytochrome P450 3A4 (Homo sapiens, UniProt P08684);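 further: CYP3A4 tested as one member of a cytochrome P450 panel screen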
# [2] = inhibitors of intracellular T. cruzi replication, confirmation, NIH3T3 host cells, beta-gal luminescence (AID 2044); format: functional, cell-based;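 further: intracellular parasites grown in NIH/3T3 mouse fibroblasts as host cells; luminescent beta-galactosidase reporter signal from transgenic T. cruzi replicating inside host cells; inhibitors lower the luminescence signal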
# [3] = cytotoxicity toward NIH3T3 fibroblasts, dose response, counter-screen, cell-based, ATP luminescence, mouse fibroblasts (AID 2010); format: functional;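 further: cells exposed to compound for about 90 hours before reading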
# [4] = target: Cytochrome P450 2C9 (Homo sapiens, UniProt P11712)
# Sequence of Cytochrome P450 2C9 (P11712 whole entry): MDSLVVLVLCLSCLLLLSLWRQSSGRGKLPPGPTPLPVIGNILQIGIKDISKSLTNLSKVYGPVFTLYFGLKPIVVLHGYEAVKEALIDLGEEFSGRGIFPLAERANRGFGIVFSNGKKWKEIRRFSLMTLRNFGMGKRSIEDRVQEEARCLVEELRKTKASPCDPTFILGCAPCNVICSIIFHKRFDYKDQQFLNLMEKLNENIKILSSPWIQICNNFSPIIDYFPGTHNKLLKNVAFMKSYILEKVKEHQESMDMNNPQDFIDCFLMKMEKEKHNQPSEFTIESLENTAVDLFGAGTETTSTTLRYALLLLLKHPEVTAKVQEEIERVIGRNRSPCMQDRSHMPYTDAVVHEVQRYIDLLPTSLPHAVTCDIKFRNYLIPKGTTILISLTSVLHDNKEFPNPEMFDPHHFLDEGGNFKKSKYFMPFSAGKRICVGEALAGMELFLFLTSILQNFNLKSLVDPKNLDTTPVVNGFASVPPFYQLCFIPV
# [5] = test system: Streptococcus; assay: Group A Streptococcus viability loss, dose response, counter-screen for streptokinase expression inhibitor project, luminescence, BacTiterGlo (AID 1915); format: functional, organism-based;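 further: potency for reduction of bacterial viability or growth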
# [6] = test system: Streptococcus sp. 'group A'; assay: growth inhibition of control SK(-) GAS strain, dose response, counter-screen for streptokinase expression inhibitor project, luminescence, kanamycin, BacTiterGlo, confirmation (AID 1900); format: functional, organism-based
# Sequence of Cytochrome P450 3A4 (P08684 whole entry): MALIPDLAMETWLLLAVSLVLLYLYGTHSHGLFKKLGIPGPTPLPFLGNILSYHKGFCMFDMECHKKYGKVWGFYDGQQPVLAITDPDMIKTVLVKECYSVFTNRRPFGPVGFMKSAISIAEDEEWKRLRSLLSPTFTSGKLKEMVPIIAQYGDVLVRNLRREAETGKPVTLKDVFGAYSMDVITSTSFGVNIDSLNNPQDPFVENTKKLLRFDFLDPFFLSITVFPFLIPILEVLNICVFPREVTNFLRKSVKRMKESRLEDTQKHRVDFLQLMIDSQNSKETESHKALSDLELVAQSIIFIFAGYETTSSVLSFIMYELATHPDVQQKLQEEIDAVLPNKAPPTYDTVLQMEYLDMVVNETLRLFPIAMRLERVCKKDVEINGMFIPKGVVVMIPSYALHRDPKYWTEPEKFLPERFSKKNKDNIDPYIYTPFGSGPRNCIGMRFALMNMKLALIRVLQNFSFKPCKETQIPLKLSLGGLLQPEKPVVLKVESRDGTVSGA
AC50 [1],Structure (SMILES),EC50 [2],EC50 [3],other results
2.51 µM (inconclusive),C[N+](C)(CCCCCC[N+](C)(C)CCCN1C(=O)c2cccc3cccc(c23)C1=O)CCCN1C(=O)c2cccc3cccc(c23)C1=O,–,–,–
–,CC(=O)c1ccc(N2CCN(C(=O)c3ccc(Cn4c(=S)[nH]c5ccc(N6CCOCC6)cc5c4=O)cc3)CC2)cc1,1.07 µM (active),> 60 µM (not active),–
–,Cc1ccc(OCCNC(=O)c2cncc(Br)c2)cc1C,–,–,AC50 [4]: 25.1 µM (inconclusive)
12.6 µM (inconclusive),COCCNc1nc(-c2ccoc2)nc2ccccc12,–,–,–
–,C=CCOc1c(Br)cc(CNCCCN2CCOCC2)cc1OC,0.521 µM (active),22.9 µM (active),–
12.6 µM (inconclusive),Fc1ccc(C2=Nn3c(Cc4ccccc4F)nnc3SC2)cc1,–,–,AC50 [4]: 2 µM (inconclusive)
12.6 µM (inconclusive),COc1ccc(-n2c(=O)c(CCc3ccccc3)nc3cnc(N4CCN(C)CC4)nc32)cc1,–,–,–
–,CCN(CC)CCN(C(=O)c1ccc2c(c1)CCCC2)c1nc2ccc(F)cc2s1,0.818 µM (active),> 60 µM (not active),–
15.8 µM (inconclusive),CC(=O)N1CCc2cc(Br)cc(S(=O)(=O)N3CCN(C(=O)c4ccco4)CC3)c21,–,–,–
–,COC(=O)c1ccc(C2Nc3cccc4cccc(c34)N2)cc1,6.1 µM (active),> 60 µM (not active),–
–,CN(CCc1ccccn1)Cc1ccc(Cl)cc1,0.221 µM (active),> 60 µM (not active),–
–,O=C(COc1ccccc1)NC(=S)Nc1ccc2c(c1)Cc1ccccc1-2,0.641 µM (active),> 60 µM (not active),–
–,Fc1ccccc1Cc1noc(CN2CCN(C/C=C/c3ccccc3)CC2)n1,0.443 µM (active),> 60 µM (inconclusive),–
25.1 µM (inconclusive),O=C(CC1C(=O)NCCN1C(=S)Nc1ccccc1)Nc1ccc2c(c1)OCCO2 (stereo not drawn),–,–,AC50 [4]: 35.5 µM (inconclusive)
–,O=C1CC(SC(=Nc2ccccc2)Nc2ccccc2)C(=O)N1c1ccc(Cl)c(Cl)c1 (stereo not drawn),2.06 µM (active),> 60 µM (inconclusive),–
–,Cc1nc2ccccn2c1C(=O)C1=C(O)C(=O)N(CCCn2ccnc2)C1c1ccncc1 (stereo not drawn),–,–,AC50 [4]: 11.2 µM (inconclusive)
–,Cc1ccc(S(=O)(=O)NCC(c2cccnc2)N2CCN(Cc3ccccc3)CC2)cc1 (stereo not drawn),0.732 µM (active),> 60 µM (not active),–
22.4 µM (inconclusive),CCNc1nc(Sc2ccc(C)cc2)cc(C(F)(F)F)n1,–,–,–
–,CCC(c1nnnn1CS(=O)(=O)c1ccc(C)cc1)N1CCN(c2nc3ccccc3s2)CC1 (stereo not drawn),0.861 µM (active),> 30 µM (not active),–
–,CC[C@H](Cc1c(I)cc(I)c(N)c1I)C(=O)O,–,–,AC50 [4]: 6.31 µM (inconclusive)
–,COc1ccc(N2CCN(C(=O)c3ccc(Cn4c(=S)[nH]c5ccc(N6CCOCC6)cc5c4=O)cc3)CC2)cc1,0.684 µM (active),> 30 µM (not active),–
–,C=CCNCCOCCOc1ccc(C)cc1Br,3.36 µM (active),> 60 µM (not active),–

AC50 [1],Structure (SMILES),EC50 [2],EC50 [3],other results
–,CCOc1ccc(C(CC(=O)O)NC(=O)COc2ccccc2)cc1 (stereo not drawn),–,–,AC50 [4]: 39.8 µM (inconclusive)
–,CC(COc1cccc2ccccc12)CN1CCN(C)CC1 (stereo not drawn),0.284 µM (active),> 30 µM (not active),–
25.1 µM (inconclusive),CCOC(=O)C1CCCN(C/C=C/c2ccccc2[N+](=O)[O-])C1 (stereo not drawn),–,–,AC50 [4]: 15.8 µM (inconclusive)
–,CCCCn1c(=O)c(C(=O)Nc2ccccn2)c(O)c2ccccc21,–,–,EC50 [5]: 19.2 µM (active); EC50 [6]: 3.64 µM (active)
–,COc1cccc(CN2CCN(Cc3c(C)nn(C(C)C)c3C)CC2CCO)c1 (stereo not drawn),1.14 µM (active),> 60 µM (not active),–
–,CC(C)c1cccc(OCCCCN(C)C)c1,0.587 µM (active),> 60 µM (not active),–
20 µM (inconclusive),CC(C)NC(=O)N1CC[C@@]2(CCCN(S(=O)(=O)c3ccccc3)C2)C1,–,–,–
–,COc1c(C)cc(Br)cc1C(=O)Nc1ccc(Cc2ccncc2)cc1,2.16 µM (active),> 60 µM (not active),–
–,CCOc1ccc(-c2nnc3n2N=C(c2ccc(OC)cc2)CS3)cc1,–,–,AC50 [4]: 2.51 µM (inconclusive)
–,COc1ccc(/C=C/C(=O)NC(=S)NNC(=O)c2cc(OC)c(OC)c(OC)c2)cc1,–,–,EC50 [5]: 3.48 µM (active); EC50 [6]: 1.38 µM (active)
–,Cc1nn(CC(N)=O)c(=O)c2ccccc12,0.903 µM (active),> 30 µM (not active),–
10 µM (inconclusive),Cc1cnc(CNc2ccnc(-c3ccc(N(C)C)cc3)n2)cn1,–,–,–
–,CCCCn1c2ccc(F)cc2c2nnc(SCCN3CCCCC3)nc21,0.681 µM (active),> 60 µM (not active),–
–,O=C(NCC1CCCO1)C(c1cccs1)N(Cc1ccccc1Cl)C(=O)c1ccc(-c2ccccc2)[nH]1 (stereo not drawn),2.96 µM (active),> 30 µM (not active),–
–,CCOC(=O)N(c1ccccc1)P1(=S)OCCO1,–,–,AC50 [4]: 0.0355 µM (inconclusive)
–,COc1ccc(C(=O)C2CCCN(Cc3cccc4c3OCO4)C2)cc1OC (stereo not drawn),0.576 µM (active),12.4 µM (active),–
–,O=C(NC1CCCC1)c1cnn2c(C(F)(F)F)cc(-c3ccco3)nc12,–,–,AC50 [4]: 22.4 µM (inconclusive)
–,O=C(Nc1nc(-c2ccc(F)cc2)cs1)C1CCN(C(=O)c2ccc(F)cc2)CC1,4.57 µM (active),> 60 µM (not active),–
12.6 µM (inconclusive),O=c1c(-c2ccc(F)c(F)c2)nc2cncnc2n1Cc1ccccc1Cl,–,–,–
1.26 µM (inconclusive),Cn1c(=O)c2c(nc(N3CCN(c4ccccn4)CC3)n2Cc2ccccc2Cl)n(C)c1=O,–,–,–
35.5 µM (inconclusive),CCOc1ccc2nc(N3CCCCCC3)sc2c1,–,–,AC50 [4]: 12.6 µM (inconclusive)
20 µM (inconclusive),O=C(c1cc(-c2cccs2)on1)N1CCN(c2ccc(F)cc2)CC1,–,–,–

AC50 [1],Structure (SMILES),EC50 [2],EC50 [3],other results
28.2 µM (inconclusive),Cc1cc2ccccn2c1C(=O)c1nc(N2CCOCC2)ncc1Cl,–,–,AC50 [4]: 39.8 µM (inconclusive)
7.94 µM (inconclusive),O=c1c(-c2cccs2)nc2cnc(N3CCOCC3)nc2n1-c1ccccc1,–,–,AC50 [4]: 10 µM (inconclusive)
–,Cc1ccc(SCCN2CCN(C)CC2)cc1,0.852 µM (active),10.3 µM (active),–
–,COc1cc(S(=O)(=O)N2CCC(O)(c3cccc(C(F)(F)F)c3)CC2)ccc1-n1cnnn1,2.61 µM (active),> 60 µM (not active),–
–,CCO/C(O)=C/C1=NC2(CCCCC2)Cc2cc(OC)c(OC)cc21,2.2 µM (active),> 60 µM (not active),–
39.8 µM (inconclusive),COC(=O)N1CCC2(CCCN(c3ccc(-c4ccccc4)cc3)C2)CC1,–,–,–
–,COc1cc(OC)c(C2C(C(=O)Nc3ccc(C)cc3C)=C(C)Nc3ncnn32)cc1OC (stereo not drawn),–,–,AC50 [4]: 15.8 µM (inconclusive)
–,Cc1oc(-c2cccc(Cl)c2)nc1CN1CCCC(C(=O)NCCCN2CCOCC2)C1 (stereo not drawn),0.234 µM (active),> 60 µM (not active),–
–,CCN(CC)P(=O)(Nc1ccccc1Br)c1ccc(N(C)C)cc1NC(=O)c1ccco1 (stereo not drawn),1.95 µM (active),> 60 µM (not active),–
–,N#CC(C(=O)OC1CCCCC1)c1nc2ccccc2nc1N1CCCCC1 (stereo not drawn),1.01 µM (active),8.74 µM (active),–
3.98 µM (inconclusive),Cc1nc2cnc(OCc3ccccc3)nc2n(CCC#N)c1=O,–,–,–
25.1 µM (inconclusive),CCNc1ncc2nc(-c3ccccc3)c(=O)n(CCC#N)c2n1,–,–,–
–,O=C1C2C(c3ccccc3)CC=CC2[C@H](c2cccc([N+](=O)[O-])c2)N1Cc1ccccc1 (stereo partly drawn),2.17 µM (active),> 60 µM (not active),–
0.398 µM (inconclusive),COc1ccccc1CNc1ncncc1-c1ccccc1C,–,–,–
–,CC(C)OC(=O)c1cn(-c2ccccc2)nc1-c1ccco1,1.61 µM (active),31.6 µM (active),–
25.1 µM (inconclusive),CCC(C)Nc1c([N+](=O)[O-])cc(C)cc1[N+](=O)[O-] (stereo not drawn),–,–,AC50 [4]: 15.8 µM (inconclusive)
–,CCCCCCCCCCCCCCCCCCNC(=O)OC[C@@H](COP(=O)([O-])OCC[n+]1ccsc1)OC,–,–,AC50 [4]: 39.8 µM (inconclusive)
3.98 µM (inconclusive),CSc1cc2c(cc1C(F)(F)F)N(C(=O)Nc1cccnc1)CC2,–,–,–
–,Cc1nn(Cc2ccc(F)cc2)c(Cl)c1/C=N/NC(=O)c1ccccc1,2.67 µM (active),> 60 µM (not active),–
–,O=C(N/N=C\c1cccc(F)c1)c1ccc(Cn2cc(Br)c([N+](=O)[O-])n2)o1,0.889 µM (active),> 60 µM (not active),–
–,CN1/C(=C/c2cccc[n+]2C)Sc2ccccc21,0.185 µM (active),> 60 µM (not active),–
–,CCOC(=O)CCC(=O)O[C@H]1[C@H](O[C@@H]2[C@@H](C)[C@H](O[C@H]3C[C@@](C)(OC)[C@@H](O)[C@H](C)O3)[C@@H](C)C(=O)O[C@H](CC)[C@@](C)(O)[C@H](O)[C@@H](C)C(=O)[C@H](C)C[C@@]2(C)O)O[C@H](C)C[C@@H]1N(C)C [ERYTHROMYCIN ETHYLSUCCINATE],–,–,EC50 [5]: < 0.06 µM (active); EC50 [6]: < 0.06 µM (active)

Structure (SMILES),AC50 [1],EC50 [2],EC50 [3],other results
Cc1cnc2cc(Cl)ccc2c1SCC(=O)O,3.98 µM (inconclusive),–,–,–
O=C(c1csnn1)N1CCC2(CC1)CN(Cc1ccncc1)C2,15.8 µM (inconclusive),–,–,–
C/C(=N\OC(=O)NC(C)C)c1sc(-c2ccccc2)nc1C,25.1 µM (inconclusive),–,–,AC50 [4]: 11.2 µM (inconclusive)
Nc1c(S(=O)(=O)O)cc(Nc2cccc(S(N)(=O)=O)c2)c2c1C(=O)c1ccccc1C2=O,7.94 µM (inconclusive),–,–,–
